In patent US20120015907A1, “Furopyridine compounds and uses thereof” (NOVARTIS AG, priority 2010, published 2012) one finds IC50 data, which are given here for 27 molecules.

This experiment addresses T1, HCV polymerase (Hepatitis C virus genotype 1b, UniProt Q9WMX2).
T1 construct: (His)6 (C)
Description: biochemical. Conditions: polymerase assay of Biological Example 1; read-out: NS5B polymerase IC50. From the text: A number of assays have been published to assess these activities. A general method that assesses the gross increase of HCV virus in culture was disclosed in U.S. Pat. No. 5,738,985 to Miles et al. In vitro assays have been reported in Ferrari et al. Jnl. of Vir., 73:1649-1654, 1999; Ishii et al., Hepatology, 29:1227-1235, 1999; Lohmann et al., Jnl of Bio. Chem., 274:10807-10815, 1999; and Yamashita et al., Jnl. of Bio. Chem., 273:15479-15486, 1998.
WO 97/12033, filed on Sep. 27, 1996, by Emory University, listing C. Hagedorn and A. Reinoldus as inventors, which claims priority to U.S. Provisional Patent Application Ser. No. 60/004,383, filed on September 1995, described an HCV polymerase assay that can be used to evaluate the activity of the of the compounds described herein. Another HCV polymerase assay has been reported by Bartholomeusz, et al., Hepatitis C Virus (HCV) RNA polymerase assay using cloned HCV non-structural proteins; Antiviral Therapy 1996:1(Supp 4) 18-24.
In general, IC50 refers to the concentration that inhibits the measured activity by half. As to `CCc1cc2c(C(=O)NC)c(-c3ccc(F)cc3)oc2nc1N(C[C@H](C)Cc1ccc(OC)nc1)S(C)(=O)=O` [Example 21.7, (R)-5-ethyl-2-(4-fluorophenyl)-6-(N-(3-(6-methoxypyridin-3-yl)-2-methylpropyl)methylsulfonamido)-N-methylfuro[2,3-b]pyridine-3-carboxamide], the IC50 was determined as 531 nM.

Regarding `CCc1cc2c(C(=O)NC)c(-c3ccc(F)cc3)oc2nc1N(CCCN1CCN(C)C1=O)S(C)(=O)=O` [Example 21.94, 5-ethyl-2-(4-fluorophenyl)-N-methyl-6-(N-(3-(3-methyl-2-oxoimidazolidin-1-yl)propyl)methylsulfonamido)furo[2,3-b]pyridine-3-carboxamide], the IC50 came out at 77 nM. For `CNC(=O)c1c(-c2ccc(C)cc2)oc2nc(N(CCCC/C(C(=O)O)=C(\C)O)S(C)(=O)=O)c(C3CC3)cc12` [Example 46.1, (Z)-6-(N-(5-cyclopropyl-3-(methylcarbamoyl)-2-(p-tolyl)furo[2,3-b]pyridin-6-yl)methylsulfonamido)-2-(1-hydroxyethylidene)hexanoic acid] the value was 3 nM; for `CNC(=O)c1c(-c2ccccc2)oc2nc(N(C)S(C)(=O)=O)c(C3CC3)cc12` [Example 2.8, 5-cyclopropyl-N-methyl-6-(N-methylmethylsulfonamido)-2-phenylfuro[2,3-b]pyridine-3-carboxamide], 30 nM. For `CCc1cc2c(C(=O)NC)c(-c3ccc(F)cc3)oc2nc1N(CCCCC(=O)O)S(C)(=O)=O` [Example 21.2, 5-(N-(5-ethyl-2-(4-fluorophenyl)-3-(methylcarbamoyl)furo[2,3-b]pyridin-6-yl)methylsulfonamido)pentanoic acid] the value was 12 nM; for `CNC(=O)c1c(-c2ccc(C)cc2)oc2nc(N(CCCCC3(C(=O)O)CCOCC3)S(C)(=O)=O)c(C3CC3)cc12` [Example 29.95, 4-(4-(N-(5-cyclopropyl-3-(methylcarbamoyl)-2-p-tolylfuro[2,3-b]pyridin-6-yl)methylsulfonamido)butyl) tetrahydro-2H-pyran-4-carboxylic acid], 3 nM; for `CNC(=O)c1c(-c2ccccn2)oc2nc(N(C)S(C)(=O)=O)c(I)cc12` [Example 2.3, 5-iodo-N-methyl-6-(N-methylmethylsulfonamido)-2-(pyridin-2-yl)furo[2,3-b]pyridine-3-carboxamide], 408 nM. For `CNC(=O)c1c(-c2ccc(C)cc2C)oc2nc(N(C)S(C)(=O)=O)c(C3CC3)cc12` [Example 2.99, 5-cyclopropyl-2-(2,4-dimethylphenyl)-N-methyl-6-(N-methylmethylsulfonamido)furo[2,3-b]pyridine-3-carboxamide] the value was 71 nM; for `CNC(=O)c1c(-c2ccc(C)cc2)oc2nc(N(CCOCCBr)S(C)(=O)=O)c(C3CC3)cc12` [Example 29.99994, 6-(N-(2-(2-bromoethoxy)ethyl)methylsulfonamido)-5-cyclopropyl-N-methyl-2-p-tolylfuro[2,3-b]pyridine-3-carboxamide], 7 nM.

For `CCc1cc2c(C(=O)NC)c(-c3ccc(F)cc3)oc2nc1N(CCCS(=O)(=O)N1CCOCC1)S(C)(=O)=O` [Example 21.98, 5-ethyl-2-(4-fluorophenyl)-N-methyl-6-(N-(3-(morpholinosulfonyl)propyl)methylsulfonamido)furo[2,3-b]pyridine-3-carboxamide], the IC50 turned out to be 37 nM.

For the molecule `CNC(=O)c1c(-c2ccc(C)cc2)oc2nc(N(CCCc3nn[nH]n3)S(C)(=O)=O)c(C3CC3)cc12` [Example 29.92, 6-(N-(3-(2H-tetrazol-5-yl)propyl)methylsulfonamido)-5-cyclopropyl-N-methyl-2-p-tolylfuro[2,3-b]pyridine-3-carboxamide], the IC50 worked out at 2 nM. Regarding `CCc1cc2c(C(=O)NC)c(-c3ccc(F)cc3)oc2nc1N(CCOc1ccccc1OC)S(C)(=O)=O` [Example 21.91, 5-ethyl-2-(4-fluorophenyl)-6-(N-(2-(2-methoxyphenoxy)ethyl)methylsulfonamido)-N-methylfuro[2,3-b]pyridine-3-carboxamide], the 50% inhibitory concentration (IC50) is 570 nM. For `CCc1ccc(-c2oc3nc(N(CCCCC4(C(=O)O)CCOCC4)S(C)(=O)=O)c(C4CC4)cc3c2C(=O)NC)cc1` [Example 29.94, 4-(4-(N-(5-cyclopropyl-2-(4-ethylphenyl)-3-(methylcarbamoyl)furo[2,3-b]pyridin-6-yl)methylsulfonamido)butyl) tetrahydro-2H-pyran-4-carboxylic acid] the value was 3 nM; for `CNC(=O)c1c(-c2ccc(F)cc2)oc2nc(N(C)S(C)(=O)=O)c(/C=C/C#N)cc12` [Example 13, (E)-5-(2-cyanovinyl)-2-(4-fluorophenyl)-N-methyl-6-(N-methylmethylsulfonamido)furo[2,3-b]pyridine-3-carboxamide], 273 nM. For `CNC(=O)c1c(-c2ccc(C)cc2)oc2nc(N(CCCCCO)S(C)(=O)=O)c(C3CC3)cc12` [Example 23.99996, 5-cyclopropyl-6-(N-(5-hydroxypentyl)methylsulfon amido)-N-methyl-2-p-tolylfuro[2,3-b]pyridine-3-carboxamide] the value was 2 nM; for `CNC(=O)c1c(-c2ccc(C)cc2)oc2nc(N(CCCCC(C(=O)O)S(C)(=O)=O)S(C)(=O)=O)c(C3CC3)cc12` (stereo not drawn) [Example 46, 6-(N-(5-cyclopropyl-3-(methylcarbamoyl)-2-(p-tolyl)furo[2,3-b]pyridin-6-yl)methylsulfonamido)-2-(methylsulfonyl)hexanoic acid], 3 nM; for `CNC(=O)c1c(-c2ccc(F)cc2)oc2nc(N(C)S(C)(=O)=O)c(CCCN)cc12` [Example 15, 5-(3-aminopropyl)-2-(4-fluorophenyl)-N-methyl-6-(N-methylmethylsulfonamido)furo[2,3-b]pyridine-3-carboxamide], 532 nM. In the case of `CNC(=O)c1c(-c2ccc(C)cc2)oc2nc(N(CCCNCCCC(=O)O)S(C)(=O)=O)c(C3CC3)cc12` [Example 23.999996, 4-(3-(N-(5-cyclopropyl-3-(methylcarbamoyl)-2-p-tolylfuro[2,3-b]pyridin-6-yl)methylsulfonamido)propylamino)butanoic acid], the IC50 stood at 16 nM. For `CNC(=O)c1c(-c2ccc(F)cc2)oc2nc(N(C)S(C)(=O)=O)c(CCCC(=O)N3CCC[C@H]3C(N)=O)cc12` [Example 4.4, (S)-5-(4-(2-carbamoylpyrrolidin-1-yl)-4-oxobutyl)-2-(4-fluorophenyl)-N-methyl-6-(N-methylmethylsulfonamido)furo[2,3-b]pyridine-3-carboxamide] the value was 200 nM; for `CCc1cc2c(C(=O)NC)c(-c3ccc(F)cc3)oc2nc1N(CCOc1ccccc1C(=O)OC)S(C)(=O)=O` [Example 22.5, methyl 2-(2-(N-(5-ethyl-2-(4-fluorophenyl)-3-(methylcarbamoyl)furo[2,3-b]pyridin-6-yl)methylsulfonamido)ethoxy)benzoate], 83 nM; for `CCc1cc2c(C(=O)NC)c(-c3ccc(F)cc3)oc2nc1N(CCOc1ccccc1C#N)S(C)(=O)=O` [Example 21.95, 6-(N-(2-(2-cyanophenoxy)ethyl)methylsulfonamido)-5-ethyl-2-(4-fluorophenyl)-N-methylfuro[2,3-b]pyridine-3-carboxamide], 119 nM. `CCc1cc2c(C(=O)NC)c(-c3ccc(F)cc3)oc2nc1N(CC[C@H]1COc2c(OC)cccc21)S(C)(=O)=O` [Example 22.9, (R)-5-ethyl-2-(4-fluorophenyl)-6-(N-(2-(7-methoxy-2,3-dihydrobenzofuran-3-yl)ethyl)methylsulfonamido)-N-methylfuro[2,3-b]pyridine-3-carboxamide]: the IC50 worked out at 23 nM. Consider `CCc1ccc(-c2oc3nc(N(CCCC(C)(CCOC)C(=O)O)S(C)(=O)=O)c(C4CC4)cc3c2C(=O)NC)cc1` (stereo not drawn) [Example 42, 5-(N-(5-Cyclopropyl-2-(4-ethylphenyl)-3-(methylcarbamoyl)furo[2,3-b]pyridin-6-yl)methylsulfonamido)-2-(2-methoxyethyl)-2-methylpentanoic acid], for which the IC50 turned out to be 2 nM. The same measure for `CNC(=O)c1c(-c2ccc(Oc3ccccc3F)cc2)oc2nc(N(CCCCC(=O)O)S(C)(=O)=O)c(C3CC3)cc12` [Example 27.3, 5-(N-(5-cyclopropyl-2-(4-(2-fluorophenoxy)phenyl)-3-(methylcarbamoyl)furo[2,3-b]pyridin-6-yl)methylsulfonamido) pentanoic acid]: 23 nM. “6-{[3-(1,1-Dioxo-tetrahydro-1lambdathiophen-2-yl)-propyl]-methanesulfonyl-amino}-5-ethyl-2-(4-fluoro-phenyl)-furo[2,3-b]pyridine-3-carboxylic acid methylamide [Example 22.99]”: the IC50 turned out to be 15 nM.

For the molecule `CNC(=O)c1c(-c2ccc(F)cc2)oc2nc(N(CCCOCCOC)S(C)(=O)=O)c(I)cc12` [Example 18.992, 2-(4-fluorophenyl)-5-iodo-6-(N-(3-(2-methoxyethoxy)propyl)methylsulfonamido)-N-methylfuro[2,3-b]pyridine-3-carboxamide], the IC50 amounted to 237 nM. As to `CCc1ccc(-c2oc3nc(N(CCCC[C@@H](COC)C(=O)O)S(C)(=O)=O)c(C4CC4)cc3c2C(=O)NC)cc1` [Example 47.4, (S)-6-(N-(5-Cyclopropyl-2-(4-ethylphenyl)-3-(methylcarbamoyl)furo[2,3-b]pyridin-6-yl)methylsulfonamido)-2-(methoxymethyl)hexanoic acid], the IC50 came to 3 nM.
